Laboratory results: patent US20020031787A1, “Compositions and methods for reducing autoimmunity” (priority 2000, published 2002)
Where no end group is shown, it is not given here.

Tested on: NOD mice
Details: mouse, in vivo

With “insulin B chain 8-20 amino acid peptide (GSHLVEALYLVCG; ends and bridges not checked; UniProt P01308 32-44, looked up, fragment) [islet cell antigen peptide added to the vaccines]” the “effect of the vaccines on diabetes when the peptide was added” value was “enhanced”.
